Molecules are shown by their SMILES. Calls of active or inactive are those of the source. The rule behind the calls is not given here.

Chain of Serine/threonine-protein kinase mTOR (Homo sapiens) (P42345 2015-2114): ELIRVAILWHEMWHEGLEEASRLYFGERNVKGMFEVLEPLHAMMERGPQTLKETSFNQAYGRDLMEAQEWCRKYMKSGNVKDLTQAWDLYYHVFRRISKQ

This test concerns the target Serine/threonine-protein kinase mTOR (Homo sapiens) (UniProt P42345). Put plainly: mTOR FRB domain ligand binding – biophysical, NMR (AID 1648). As to conditions: NMR binding to FRB domain, chemical shift.
For `CC1CC[C@@]2(OC1)O[C@H]1CC3C4CC[C@@H]5C[C@@H](O)CC[C@]5(C)C4CC[C@]3(C)[C@H]1[C@@H]2C` (stereo partly drawn), the Kd is > 4 mM (inactive).
For `O=C(O[C@@H]1Cc2c(O)cc(O)cc2O[C@@H]1c1cc(O)c(O)c(O)c1-c1c([C@H]2Oc3cc(O)cc(O)c3C[C@H]2O)cc(O)c(O)c1O)c1cc(O)c(O)c(O)c1`, the Kd is > 4 mM (inactive).
Regarding `CN(C)C(=O)CSc1cccc2cccnc12`, the Kd is > 4 mM (inactive).
For the molecule `NCc1ccc(-c2cccs2)s1`, the Kd was > 4 mM (inactive).
With `O=C1CCCCCN1CO`, the Kd is > 4 mM (inactive).
With `Cc1cccc(N2CCN(C(=O)c3ccncc3)CC2)c1C` the figure was > 4 mM (inactive); with `CN1C(=O)C2C=CC1C1C(=O)N(c3ccccc3)C(=O)C21` (stereo not drawn), > 4 mM (inactive); with `O=C(Nc1cccc(Cl)c1)c1cnn2cccnc12`, > 4 mM (inactive).
As for `Cc1nn(C)c(N2CCOCC2)c1N`, the Kd is > 4 mM (inactive).
To `CC(=O)C1CC[C@H]2C3CC[C@H]4C[C@H](O)CC[C@]4(C)C3CC[C@]12C` (stereo partly drawn) belongs > 4 mM (inactive); to `CSc1ccc(/C=c2\sc3ncnn3c2=O)cc1`, > 4 mM (inactive); to `O=C(O)c1cccnc1`, > 4 mM (inactive).
With `CN1CCC(N(C)C2CCN(C)CC2)CC1` the figure was > 4 mM (inactive); with `CN1CCC(O)N1C(=O)c1ccccc1O` (stereo not drawn), > 4 mM (inactive); with `O=C1c2ccccc2C(=O)c2c1ccc(O)c2O`, > 4 mM (inactive).
To `NC(=O)Cn1cnc2c(cnn2-c2ccccc2)c1=O` belongs > 4 mM (inactive); to `S=c1[nH]ncn1-c1ccccc1`, > 4 mM (inactive); to `Nc1ncnc2c1ncn2C1C[C@H](O)[C@@H](CO)O1` (stereo partly drawn), > 4 mM (inactive).
Turning to `COC(=O)NCc1cc2cc(Cl)ccc2[nH]1`, the Kd was > 4 mM (inactive).
`Cn1[nH]c2nc3[nH]n(C)c(=O)c3c(-c3ccccc3)c2c1=O`: the Kd was > 4 mM (inactive).
Take `O=c1[nH]nnc2sc3c(c12)CCCC3`: the Kd was > 4 mM (inactive).
To `Cc1nccn1CCC(=O)O` belongs > 4 mM (inactive); to `Cc1ccc(SCc2cc(=O)n3[nH]cnc3n2)cc1`, > 4 mM (inactive).
As for `Cc1ccc(Nc2nnns2)cc1C`, the Kd is > 4 mM (inactive).
As for `CC(=O)N1C(=S)NC(=O)/C1=C\c1cccnc1`, the Kd is > 4 mM (inactive).
As for `O=C1c2cccc3cc(S(=O)(=O)O)cc(c23)C(=O)N1O`, the Kd is > 4 mM (inactive).
In the case of `OCc1ccccc1CN1CCOCC1`, the Kd is > 4 mM (inactive).
With `CC(=O)c1cccc(NC(=O)NN2CCOCC2)c1`, the Kd was > 4 mM (inactive).
In the case of `NCc1ccc(-n2cccc2)cc1`, the Kd was > 4 mM (inactive).
Regarding `C[N+](C)(C)CC(O)CC(=O)O` (stereo not drawn), the Kd was > 4 mM (inactive).
Regarding `CC1CN=C(Nc2ccccc2)S1` (stereo not drawn), the Kd was > 4 mM (inactive).
As to `CC(=O)Nc1nnc(-c2ccccn2)o1`, the Kd was > 4 mM (inactive).
Turning to `OCCNC(=S)Nc1ccc(F)cc1`, the Kd was > 4 mM (inactive).
As to `O=C(O)C1CC(=O)N(CCc2ccc(Cl)cc2)C1` (stereo not drawn), the Kd was > 4 mM (inactive).
Regarding `CC(=O)OC/C=C(\C)CC/C=C(\C)CC/C=C(\C)CC/C=C(\C)CC/C=C(\C)CC/C=C(\C)CC/C=C(\C)CC/C=C(\C)CCC=C(C)C`, the Kd was > 4 mM (inactive).
In the case of `O=C(O)/C=C/C(=O)Nc1ccccc1C(F)(F)F`, the Kd is > 4 mM (inactive).
With `Cc1nc(SCC#N)c2c(C)c(C)sc2n1` the figure was > 4 mM (inactive); with `CC[C@@]1(O)C(=O)OCc2c1cc1n(c2=O)Cc2cc3ccccc3nc2-1`, > 4 mM (inactive).
Consider `C(=N\c1nccs1)/c1cccnc1`, for which the Kd was > 4 mM (inactive).
`O=C(O)c1cccnc1Oc1ccccc1`: the Kd was > 4 mM (inactive).
With `O=c1cc(O)nc(SCc2ccccc2)[nH]1` the figure was > 4 mM (inactive); with `NC(=O)CC(=O)NC12CC3CC(CC(C3)C1)C2`, > 4 mM (inactive); with `O=NN1C(=O)c2ccccc2C1=O`, > 4 mM (inactive).
Take `O=C(O)c1cncc(-c2cccs2)c1`: the Kd was > 4 mM (inactive).
Consider `CC(O)(C(=O)O)c1ccccc1` (stereo not drawn), for which the Kd is > 4 mM (inactive).
Take `COc1ccccc1NC(=O)c1ccc(C)s1`: the Kd is > 4 mM (inactive).
Take `OCc1ccc(N2CCOCC2)cc1`: the Kd is > 4 mM (inactive).
For `NC(=O)Cn1nc(-c2ccco2)ccc1=O`, the Kd is > 4 mM (inactive).
With `O=C(O)C1Cc2ccccc2N1` (stereo not drawn) the figure was > 4 mM (inactive); with `Fc1ccc(-c2n[nH]c(=S)n2CC2CCCO2)cc1` (stereo not drawn), > 4 mM (inactive).
As to `O=C1NC(=O)/C(=C\c2ccncc2)S1`, the Kd is > 4 mM (inactive).
On to `CNC(=O)c1cccc(NC(=S)NC)c1`, for which the Kd is > 4 mM (inactive).
With `COc1ccc2c(c1)OC1(O)COc3cc(OC)c(OC)cc3C1=C2` (stereo not drawn), the Kd was > 4 mM (inactive).
`CC(=O)Nc1cnn(-c2ccccc2)c(=O)c1Cl`: the Kd was > 4 mM (inactive).
With `S=C(CN1CCCC1=S)N1CCOCC1` the figure was > 4 mM (inactive); with `Cc1cc(=O)n2[nH]c(COc3ccccc3)nc2n1`, > 4 mM (inactive); with `Nc1nnc(Cc2ccc(Cl)cc2)s1`, > 4 mM (inactive).
Turning to `Cc1noc(C)c1C(=O)NCc1cccs1`, the Kd was > 4 mM (inactive).
With `O=C1CCN(c2ccccc2)N1` the figure was > 4 mM (inactive); with `Nc1ccc2c(c1)S(=O)(=O)C=C2`, > 4 mM (inactive).
To `Cc1nnc2sc(-c3csc4c3CCCC4)nn12` belongs > 4 mM (inactive); to `Nc1csc(C(=O)O)c1`, > 4 mM (inactive).
With `O=C(c1cc(-c2ccccc2)on1)N1CCCC1`, the Kd is > 4 mM (inactive).
With `Cc1cc2cc3c(C)cc(=O)oc3c(C)c2o1`, the Kd was > 4 mM (inactive).
For the molecule `Oc1cc(O)cc(/C=C/c2ccccc2)c1`, the Kd was > 4 mM (inactive).
As for `O=C(O)c1c[nH]c2ccccc12`, the Kd is > 4 mM (inactive).
Consider `O=C(Nn1cnnc1)c1cccc(C(F)(F)F)c1`, for which the Kd was > 4 mM (inactive).
To `CCN1C(=O)c2cccc3c(S(N)(=O)=O)ccc1c23` belongs > 4 mM (inactive).
On to `COC(=O)Cc1cc(=O)n(-c2nc3ccccc3s2)[nH]1`, for which the Kd was > 4 mM (inactive).
For the molecule `COC(=O)CSc1nnc(-c2ccc(C(=O)O)cc2)o1`, the Kd was > 4 mM (inactive).
With `CC(C)=CCCC1(C)C=Cc2c(O)c3c(c(CC=C(C)C)c2O1)OC12C(=CCCC1C(C)(C)O[C@@]2(C/C=C(\C)C(=O)O)C(=O)O)C3=O` (stereo partly drawn), the Kd is > 4 mM (inactive).
With `COc1ccc2c(c1)OC[C@@H](Cc1ccc(OC)c(OC)c1)[C@H]2O` the figure was > 4 mM (inactive); with `CSc1n[nH]c(NCc2ccccc2)n1`, > 4 mM (inactive); with `Cc1ccc(N2CCN(C(=O)c3ccccc3)CC2)c(C)c1`, > 4 mM (inactive).
For `Nc1cc(=O)[nH]c(=O)n1-c1ccccc1`, the Kd is > 4 mM (inactive).
To `O=C(O)CC[N+](=O)[O-]` belongs > 4 mM (inactive).
Regarding `COc1ccc(/C=C2\NC(=S)N(C)C2=O)cc1O`, the Kd was > 4 mM (inactive).
`Cc1oc(-c2ccccc2)nc1CC(=O)O`: the Kd is > 4 mM (inactive).
With `NC(=O)c1cc(N)ccc1N1CCCCC1`, the Kd was > 4 mM (inactive).
Turning to `CC12CN3CC(C)(CN(C1)C3c1cccs1)C2O` (stereo not drawn), the Kd was > 4 mM (inactive).
To `Cc1ccc(SCc2nc(-c3ccncc3)no2)cc1` belongs > 4 mM (inactive); to `Cn1cc(Cl)c(C(=O)Nc2ccncc2)n1`, > 4 mM (inactive).
To `CC(C)Oc1ccc(C2CC(=O)NNC2=O)cc1` (stereo not drawn) belongs > 4 mM (inactive).
Consider `O=C(O)C1=Cc2ccccc2OC1`, for which the Kd was > 4 mM (inactive).
Consider `O=c1cnnc(SCCc2ccccc2)[nH]1`, for which the Kd is > 4 mM (inactive).
With `NC(=O)CSc1nnc2ccc(-c3ccccn3)nn12`, the Kd is > 4 mM (inactive).
With `CC(CCC(=O)O)[C@H]1CCC2C3C[C@H](O)[C@@H]4C[C@H](O)CC[C@]4(C)C3CC[C@@]21C` (stereo partly drawn) the figure was > 4 mM (inactive); with `COCc1c(CN)cnc(C)c1N`, > 4 mM (inactive).
Regarding `CS(C)=C1C(=O)NC(=O)N(c2ccccc2)C1=O`, the Kd is > 4 mM (inactive).
Regarding `Cc1nnsc1-c1onc(C)c1C(=O)O`, the Kd was > 4 mM (inactive).
With `COc1ccc2[nH]c(O)c(NC(C)=O)c2c1` the figure was > 4 mM (inactive); with `CC(=O)Nc1ccc2c(C)cc(=O)[nH]c2c1`, > 4 mM (inactive); with `CCN1CCc2c(sc(N)c2C(N)=O)C1`, > 4 mM (inactive).
As to `Cc1c(CO)cnn1-c1ccc(F)cc1`, the Kd was > 4 mM (inactive).
With `NC(=O)CSc1ccccn1`, the Kd is > 4 mM (inactive).
`Cc1ccc(C(=O)n2cnnc2N)cc1C`: the Kd is > 4 mM (inactive).
Take `C=CCn1c(N)c(C(=O)N2CCOCC2)sc1=S`: the Kd was > 4 mM (inactive).
With `O=C(NN1C(=O)C2C3C=CC(C3)C2C1=O)C1CC=CCC1` (stereo not drawn) the figure was > 4 mM (inactive); with `Cc1sc2nc(C)n(NC(N)=O)c(=O)c2c1C`, > 4 mM (inactive).
To `Cc1[nH]c2ccccc2c1Cc1n[nH]c(=S)n1C` belongs > 4 mM (inactive).
Turning to `CN1C2CC(OC(=O)[C@H](CO)c3ccccc3)C[C@H]1[C@H]1OC21` (stereo partly drawn), the Kd is > 4 mM (inactive).
Take `CN(C)CC(O)C1CCOC(C)(C)C1` (stereo not drawn): the Kd was > 4 mM (inactive).
With `NC(=O)c1ccccc1N=Cc1ccco1` the figure was > 4 mM (inactive).

What is called Kd is the equilibrium constant for the complex coming apart.
